Results on one compound are retold here after patent US20180282279A1, “Pantothenamide Analogues” (Radboud Universitair Medisch Centrum, priority 2014, published 2018).

In this assay the test system is Plasmodium berghei strain 676c11 (PbGFP-Luc). The assay is described as follows: In vivo rodent malaria model. The following applies: female Wistar rats, 6 mg/kg orally three times a day, day 5-8. From the text:
Female mice (C57 Black 6, 9-10 weeks of age at the start of the experiment) and female rats (Wistar, 150-200 grams at the beginning of the experiment) were housed under standard conditions and experiments were approved by the institutional ethical committee on animal care and experimentation of Radboud University Medical Centre (Nijmegen).
To test our compounds in an in vivo malaria model we used a well described rodent malaria model (Zuckerman and Yoeli, J Infect Dis. 94, 225-36). First, donor mice were infected by 0.2 ml cryopreserved infected blood stocks containing the transgenic Plasmodium berghei strain 676c11 (PbGFP-Luc). After four days the mice were sacrificed and their blood was collected. The parasitemia in the blood from the mice was calculated as percentage of infected red blood cells (RBC) by Giemsa-stained blood smears. Infected blood was diluted to 5×10^7 parasites per ml and 0.2 ml was i.p. injected in rats (inoculation of 10′ parasites per rat). Treatment with chloroquine (6 mg/kg), CXP18.6-017 (100 mg/kg) and CXP18.6-052 (100 mg/kg) started 5 days post inoculation and where given orally three times a day until day eight. From day 5 blood samples were collected and parasitemia was determined by analysis of Giemsa-stained blood smears. The infection and treatment regimes were well tolerated by the animals.

As for `CCN(CC)CCCC(C)Nc1ccnc2cc(Cl)ccc12` (stereo not shown) [chloroquine, reference compound], the parasitemia entry is listed as “reduced parasitemia to nearly undetectable levels within 3 days”.
